“Also recorded” adds a separate entry of the source.
Legend:
TRPV1 [1] = target: T1, TRPV1 (Homo sapiens, UniProt Q8NER1); experiment: TRP channel panel primary screen (FLIPR Calcium 5, stable HEK line); type: cell-based; details: 0.3-300μM
Description: ±PZQ, (R)-PZQ and (S)-PZQ were screened against a panel of 17 human TRP channels (SB Drug Discovery, Glasgow). For all hTRPs, except for TRPM5, individual channel constructs were stably expressed in HEK cell lines. TRMP5 was expressed in a stable CHO cell line. In preparation for the assays, cells were trypsinized, counted and seeded (50,000 cells/well) in black, clear-bottomed 96 well plates and incubated overnight. The following day, cells were loaded with a fluorescent indicator (FLIPR Calcium 5 Assay kit for TRPA1, TRPV1, TRPV2, TRPV3, TRPV4, TRPV5, TRPC1, TRPM2, TRPM3 and TRPM8, or a membrane potential dye (FLIPR Membrane Potential Red Assay Kit for TRPC3, TRPC4, TRPC5, TRPC6, TRPC7, TRPM4 and TRPM5) prepared according to the manufacturer’s instructions in HEPES buffered Hank’s balanced salt solution (HBSS). Dye solution (10μl) was added to appropriate wells and incubated at 37°C for 1 hour. All assays were performed at room temperature. Compounds were tested at 0.3, 1, 3, 10, 30, 100μM and 300μM in triplicate in both agonist and antagonist mode to determine EC50 and IC50 values, which were compared with reference compounds. Compounds were screened at a final DMSO concentration of 0.5%. Plates were screened using a Flexstation (Molecular Devices, FX01138), monitoring fluorescence values every ~1.52 seconds. For ‘agonist mode’ testing, 10μl of the appropriate test compound, or standard agonist, was added after 20 seconds and fluorescence monitored for 2 minutes at λex = 485nm, λem = 525nm for Ca^2+ imaging and λex = 530nm, λem = 565nm for membrane potential measurements. For ‘antagonist mode’ testing, test compounds and standard inhibitors were added to appropriate wells and incubated for 10 minutes at room temperature prior to addition of standard agonist compound.

[2] = tested on: untransfected HEK293 cells; experiment: Confocal Ca2+ imaging in untransfected HEK293 cells (control); type: cell-based, human; details: menthol 300μM, ±PZQ 100μM, ACh 100μM, capsaicin 1μM, AITC 100μM
Description: HEK293 cells (ATCC CRL-1573.3) were cultured in DMEM supplemented with 10% fetal bovine serum (FBS), penicillin (100 units/ml), streptomycin (100 μg/ml), and L-glutamine (290 μg/ml). Cells were transiently transfected (Lipofectamine LTX, Thermo Fisher) at a density of 2x10^6 cells per T-25 cell-culture flask with TRP channel cDNA. For Ca^2+ imaging assays, HEK293 cells were seeded onto 8-chambered coverglass slides (Thermo Fisher, 115411PK), at a density of 1x10^4 cells one day prior to imaging. Cells were washed twice with HBSS, and incubated with fluo-4-AM (4μM), pluronic F127 (0.4%) and probenecid (2.5mM) for 25 minutes at room temperature. Cells were then washed twice with HBSS, and left at room temperature (30 minutes) for de-esterification. Dishes were mounted on an Olympus IX81 microscope and fluorescence changes (λex = 488nM, λem = 513±15nm bandpass filter) monitored using a Yogokawa spinning disk confocal (CSU-X-M1N) and an Andor iXon Ultra 888 EMCCD camera.

TRPA1 = tested on: TRPA1; parameters: method as in PMID 29054683; details: ≤100μM; cited from earlier work
TRPV1 [3] = target: T1, TRPV1; parameters: method as in PMID 29054683; details: 100μM; cited from earlier work
hTRPM8 = hTRPM8 (Homo sapiens, UniProt Q7Z2W7); parameters: host or cells: HEK293 (ATCC CRL-1573.3), transient; method as in PMID 29054683; details: by microfluorimetry; partial agonist; cited from earlier work
Chain of hTRPM8 (Q7Z2W7 whole entry): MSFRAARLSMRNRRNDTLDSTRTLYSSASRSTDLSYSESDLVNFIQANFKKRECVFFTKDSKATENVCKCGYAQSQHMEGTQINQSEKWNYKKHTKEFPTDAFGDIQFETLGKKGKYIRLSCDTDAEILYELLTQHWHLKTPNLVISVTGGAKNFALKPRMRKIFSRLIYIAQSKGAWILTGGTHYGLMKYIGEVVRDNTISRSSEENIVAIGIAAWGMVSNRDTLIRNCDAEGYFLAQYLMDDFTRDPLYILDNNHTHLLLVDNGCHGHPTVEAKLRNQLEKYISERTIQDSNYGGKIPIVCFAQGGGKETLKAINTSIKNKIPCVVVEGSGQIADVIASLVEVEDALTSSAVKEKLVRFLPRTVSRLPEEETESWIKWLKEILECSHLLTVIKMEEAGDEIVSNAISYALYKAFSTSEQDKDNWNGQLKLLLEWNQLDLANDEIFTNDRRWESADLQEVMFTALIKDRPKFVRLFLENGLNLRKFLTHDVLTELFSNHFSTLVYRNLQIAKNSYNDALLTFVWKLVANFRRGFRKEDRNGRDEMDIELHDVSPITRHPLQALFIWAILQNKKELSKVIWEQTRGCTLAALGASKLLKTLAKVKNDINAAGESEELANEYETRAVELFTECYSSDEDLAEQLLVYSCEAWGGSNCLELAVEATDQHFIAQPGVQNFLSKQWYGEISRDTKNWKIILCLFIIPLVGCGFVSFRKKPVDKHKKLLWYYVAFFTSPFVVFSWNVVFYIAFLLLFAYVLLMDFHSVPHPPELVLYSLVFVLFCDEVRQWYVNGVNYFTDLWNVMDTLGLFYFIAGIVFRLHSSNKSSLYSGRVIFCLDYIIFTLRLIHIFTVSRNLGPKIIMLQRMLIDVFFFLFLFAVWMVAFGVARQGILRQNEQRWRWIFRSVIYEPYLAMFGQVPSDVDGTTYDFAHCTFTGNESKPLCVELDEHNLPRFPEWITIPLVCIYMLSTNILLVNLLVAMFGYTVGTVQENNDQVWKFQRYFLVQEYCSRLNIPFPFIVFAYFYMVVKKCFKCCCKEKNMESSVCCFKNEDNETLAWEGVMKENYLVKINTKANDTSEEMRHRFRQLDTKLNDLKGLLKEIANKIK

[4] = tested on: mouse mesenteric arteries; experiment: Wire myography, mesenteric artery strips at resting (basal) tone; details: 100μM added at basal tone
[5] = tested on: mesenteric vessels isolated from a TRPM8 knockout mouse; experiment: Wire myography, KPSS-contracted mesenteric vessels from TRPM8 knockout mice; details: TRPM8 KO tissue; 50μM
TRPM5 = target: T2, TRPM5 (Homo sapiens, UniProt Q9NZQ8); experiment: TRP channel panel primary screen (membrane potential dye, stable CHO line); type: cell-based; details: 0.3-300μM
T2 sequence (Q9NZQ8 1-1165): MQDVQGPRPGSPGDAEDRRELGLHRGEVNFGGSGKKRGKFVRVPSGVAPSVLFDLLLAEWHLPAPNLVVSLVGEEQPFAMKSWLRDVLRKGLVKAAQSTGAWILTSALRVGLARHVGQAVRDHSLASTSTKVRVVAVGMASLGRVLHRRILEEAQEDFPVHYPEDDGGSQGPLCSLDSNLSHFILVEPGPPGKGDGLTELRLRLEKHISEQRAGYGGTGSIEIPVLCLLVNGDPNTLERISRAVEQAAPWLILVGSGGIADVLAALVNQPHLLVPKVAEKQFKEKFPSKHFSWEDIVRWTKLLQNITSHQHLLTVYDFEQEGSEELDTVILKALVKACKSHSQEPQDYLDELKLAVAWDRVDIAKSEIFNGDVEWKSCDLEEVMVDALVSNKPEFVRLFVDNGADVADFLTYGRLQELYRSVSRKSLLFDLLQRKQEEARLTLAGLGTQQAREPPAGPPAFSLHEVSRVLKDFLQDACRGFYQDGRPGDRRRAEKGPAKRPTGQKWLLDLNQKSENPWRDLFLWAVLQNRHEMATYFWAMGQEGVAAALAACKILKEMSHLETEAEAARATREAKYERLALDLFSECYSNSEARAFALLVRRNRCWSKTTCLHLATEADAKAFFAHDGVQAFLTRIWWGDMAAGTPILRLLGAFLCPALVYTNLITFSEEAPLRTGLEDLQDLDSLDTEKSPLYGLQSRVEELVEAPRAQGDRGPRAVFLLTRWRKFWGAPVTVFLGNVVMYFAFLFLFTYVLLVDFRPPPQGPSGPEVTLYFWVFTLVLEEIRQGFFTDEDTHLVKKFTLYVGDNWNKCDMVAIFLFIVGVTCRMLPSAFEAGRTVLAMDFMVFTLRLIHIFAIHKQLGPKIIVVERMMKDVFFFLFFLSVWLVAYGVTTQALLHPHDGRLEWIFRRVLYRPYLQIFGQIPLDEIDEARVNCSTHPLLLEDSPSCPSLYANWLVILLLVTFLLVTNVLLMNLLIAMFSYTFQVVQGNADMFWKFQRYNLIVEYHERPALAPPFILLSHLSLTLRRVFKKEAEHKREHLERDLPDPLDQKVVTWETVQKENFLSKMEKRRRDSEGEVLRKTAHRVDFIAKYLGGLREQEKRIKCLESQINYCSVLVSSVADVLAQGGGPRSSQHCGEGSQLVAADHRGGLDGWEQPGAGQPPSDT
Description: ±PZQ, (R)-PZQ and (S)-PZQ were screened against a panel of 17 human TRP channels (SB Drug Discovery, Glasgow). For all hTRPs, except for TRPM5, individual channel constructs were stably expressed in HEK cell lines. TRMP5 was expressed in a stable CHO cell line. In preparation for the assays, cells were trypsinized, counted and seeded (50,000 cells/well) in black, clear-bottomed 96 well plates and incubated overnight. […] Plates were screened using a Flexstation (Molecular Devices, FX01138), monitoring fluorescence values every ~1.52 seconds. For ‘agonist mode’ testing, 10μl of the appropriate test compound, or standard agonist, was added after 20 seconds and fluorescence monitored for 2 minutes at λex = 485nm, λem = 525nm for Ca^2+ imaging and λex = 530nm, λem = 565nm for membrane potential measurements. […]

T1 sequence (Q8NER1 whole entry): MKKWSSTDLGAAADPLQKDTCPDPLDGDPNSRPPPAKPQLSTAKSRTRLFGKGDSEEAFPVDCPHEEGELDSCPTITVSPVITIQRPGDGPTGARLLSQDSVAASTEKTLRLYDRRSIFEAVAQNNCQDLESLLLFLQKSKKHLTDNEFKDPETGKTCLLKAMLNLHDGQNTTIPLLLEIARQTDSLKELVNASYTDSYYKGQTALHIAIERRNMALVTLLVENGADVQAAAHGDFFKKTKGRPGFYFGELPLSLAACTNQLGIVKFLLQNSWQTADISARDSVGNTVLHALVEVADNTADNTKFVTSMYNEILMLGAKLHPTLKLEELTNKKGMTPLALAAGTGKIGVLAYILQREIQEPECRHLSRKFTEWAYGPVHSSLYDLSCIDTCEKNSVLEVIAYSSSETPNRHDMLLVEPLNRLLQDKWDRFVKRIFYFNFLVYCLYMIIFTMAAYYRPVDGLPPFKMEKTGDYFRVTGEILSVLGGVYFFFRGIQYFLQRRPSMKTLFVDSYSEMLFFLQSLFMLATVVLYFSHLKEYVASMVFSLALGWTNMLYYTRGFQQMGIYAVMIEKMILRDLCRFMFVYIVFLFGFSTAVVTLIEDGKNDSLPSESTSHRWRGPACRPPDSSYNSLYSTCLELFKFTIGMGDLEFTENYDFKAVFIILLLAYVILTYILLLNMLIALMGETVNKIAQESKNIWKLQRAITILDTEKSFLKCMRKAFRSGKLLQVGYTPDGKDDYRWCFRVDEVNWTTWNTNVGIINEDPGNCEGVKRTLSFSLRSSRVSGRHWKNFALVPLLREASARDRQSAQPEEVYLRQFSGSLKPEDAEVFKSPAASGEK

| activity against TRPV1 in primary screen (TRPV1 [1]) | activation of TRPM5 in primary screen (TRPM5) | Compound | Ca2+ response in untransfected HEK293 cells [2] | activity against TRPA1 (TRPA1) | activation of TRPV1 (TRPV1 [3]) | EC50 (hTRPM8) [µM] | change of tension at resting tone [4] | extent of relaxation [5] |
| --- | --- | --- | --- | --- | --- | --- | --- | --- |
| no activity | – | O=C(C1CCCCC1)N1CC(=O)N2CCc3ccccc3C2C1 (racemic) [±PZQ, praziquantel] | neither ±PZQ or menthol elevated cytoplasmic Ca^2+ levels; also recorded: neither the addition of the TRPV1 agonist capsaicin (1μM) nor addition of ±PZQ evoked a Ca^2+ response; also recorded: without effect | lack of activity | low potency activation | ~25 | marked contraction | – |
| – | not activated | O=C(C1CCCCC1)N1CC(=O)N2CCc3ccccc3[C@H]2C1 [(S)-PZQ] | – | – | – | – | – | ~ 30 % of peak KPSS-evoked tone |

Reference: paper PMC5927461, “Activation of host transient receptor potential (TRP) channels by praziquantel stereoisomers” (PLoS Neglected Tropical Diseases, 2018)
